In a melting point compilation (Tetko et al.) one finds melting point data, which are given here for 110 molecules.

`O=[N+]([O-])c1ccc(N/N=C/c2ccccc2)c([N+](=O)[O-])c1` registered a melting point of 240 °C.
`CCc1cccc(CC)c1N` had a melting point of 3.5 °C.
Under `CC1(C)OC(=O)C(=NNc2ccc(Br)cc2)C(=O)O1` stands 259 to 260 °C; under `CCOC(=O)c1cnc2n(c1=O)CCS2`, 175 to 176 °C; under `COc1cccc(C=C(C)[N+](=O)[O-])c1`, 45 to 47 °C.
Under `CN(C)c1ccc(C=Cc2ccccc2)cc1` stands 150 °C; under `Cc1ccc(S(=O)(=O)N(CCO)CCO)cc1`, 94 to 100 °C.
The value for `Brc1ccc(Oc2c(Br)cc(Br)cc2Br)c(Br)c1` was 97 to 98 °C; that for `Clc1c(Cl)c(Cl)c2c(oc3c(Cl)c(Cl)c(Cl)c(Cl)c32)c1Cl` was 258 °C; that for `C=CC(=O)ON1C(=O)CCC1=O` was 69 °C.
Molecule `CCOC(=O)c1cc(C)n(CO)n1` came in with a melting point of 71 °C.
Regarding `Nc1ccc(C(F)(F)F)cc1[N+](=O)[O-]`, the melting point was 107 °C.
The molecule `c1nnc(SCCSc2nnc[nH]2)[nH]1` registered a melting point of 197 to 200 °C.
In the case of `Cc1ccccc1OC(=O)Oc1ccccc1C`, the melting point came to 60 °C.
In the case of `CCOC(=O)CNC(=O)c1cn(CC)c2nc(C)ccc2c1=O`, the melting point was 198 °C.
`Cc1nc(-c2ccccc2)ncc1CO` came in with a melting point of 85 to 86 °C.
The molecule `O=C(C1=NN(c2ccccc2)C2C(=O)N(c3ccc(F)cc3)C(=O)C12)c1ccccc1` (stereo not given) yielded a melting point of 211 °C.
`S=C=NC(c1ccccc1)(c1ccccc1)c1ccccc1`: the melting point was 138 to 140 °C.
As for `CC12CCC3C(C1CCC2=O)C1(CC2CC(=O)CCC23C)OCCO1` (stereo not given), the melting point was in the range of 205 to 208 °C.
Regarding `CC#CCN1C(=O)c2ccccc2C1=O`, the melting point was found to be 221 °C.
Under `Cc1c(N)cccc1O` stands 127 to 133 °C; under `O=C1CCCCC1`, -26 °C.
`Cc1ccc(Cl)cc1C(=O)O` gave a melting point of 168 to 170 °C.
`CC(=O)Cc1ccco1` came in with a melting point of 29 °C.
`CCOC(=O)Nc1ccc2cc3ccc(NC)c(CO)c3nc2c1` showed a melting point of 145 °C.
In turn, `c1ccc2c(c1)OCCOCCOCCOc1ccccc1OCCO2` showed a melting point of 117 to 120 °C.
Molecule `O=C(Cc1ccccc1)OC1Cc2ccccc21` (stereo not given) came in with a melting point of 42 °C.
Turning to `COC(=O)c1cccc(C(=O)O)c1N`, the melting point was 160 to 167 °C.
In turn, `CCCCCCC(=O)CCCC` yielded a melting point of 2 °C.
Under `CN(C)c1ccc(C(Cl)=NO)cc1` stands 165 °C; under `Cc1nn(C(=O)c2ccncc2)c2c1nnc1ccc(Cl)cc12`, 162 °C; under `O=[N+]([O-])c1ccc(NN=Cc2cccc3c(Br)ccc([N+](=O)[O-])c23)c([N+](=O)[O-])c1`, 243 to 244 °C.
The value for `CC1CC(C)CC(O)C1` (stereo not given) was 11.6 °C; that for `Cc1cc(Br)ccc1N=C=S` was 45 to 46 °C.
Molecule `Cn1c(C(C#N)c2ncccc2[N+](=O)[O-])nc2ccccc21` (stereo not given) displayed a melting point of 214 °C.
The value for `Nc1cc(C(=O)O)ccc1O` was 198 to 205 °C; that for `COc1cccc(OC)c1N` was 77 °C.
Regarding `CSCc1ccccc1`, the melting point was -28 °C.
The value for `COc1cc2c(cc1OC)C(c1ccc(C)o1)SC(c1ccc(C)o1)=N2` (stereo not given) was 148 °C.
Under `CCOC(=O)c1cc2cc([N+](=O)[O-])ccc2o1` stands 150 to 155 °C; under `CCN(CC)CC(=O)OCC(=O)C1(O)CCC2C3CCC4=CC(=O)CCC4(C)C3C(O)CC21C` (stereo not given), 162 °C.
As to `Cc1ccc(OCC(=O)O)c(C)c1`, the melting point was 141 °C.
`O=C(OCC(O)CO)c1ccccc1Nc1ccnc2cc(Cl)ccc12` (stereo not given): the melting point is 170 °C.
As to `Cc1cc(Br)ncc1I`, the melting point worked out at 51 °C.
The value for `CCCCCCCCCCCCCCCCCCCCC1CCCCC1` was 48.5 °C.
Under `CC1OC(=O)C(C)OC1=O` (racemic) stands 124 °C; under `COc1ccc2c(c1)CCC2=O`, 109 °C.
In the case of `CCCCCC(O)CCCCC`, the melting point was determined as 25 °C.
Regarding `CCOC(=O)c1c(C)cc(=O)oc1C`, the melting point is 17 to 18 °C.
As to `Ic1ccc(Cn2cccn2)cc1`, the melting point lay within 80 to 81 °C.
Take `NNC(=O)c1cccs1`: the melting point worked out at 139 °C.
Consider `CC#CCCCCCCCC`, for which the melting point is -30.1 °C.
Under `O=[N+]([O-])c1cc(C=NO)ccc1C=NO` stands 175 to 176 °C; under `Cc1ccc(C(F)(F)F)cc1N`, 38 °C.
In turn, `CC(C)(C)OC(=O)N1CCCC[C@@H]1C(=O)O` yielded a melting point of 118 to 122 °C.
As for `COc1ccc2c(c1)CCc1ccc3c(c1-2)c(=O)n(-c1ccccc1)n3C`, the melting point amounted to 162 °C.
Take `CCCCCCCCCCCCOC1OC(CO)C(OC2OC(CO)C(O)C(O)C2O)C(O)C1O` (stereo not given): the melting point was 217 °C.
As to `C#CCOc1c(Cl)cccc1Cl`, the melting point is 43.5 °C.
For the molecule `CCCCCCCCc1ccccc1`, the melting point is -36 °C.
Consider `O=S(=O)(c1ccccc1)n1cc(CO)c2ccccc21`, for which the melting point fell in the range of 90 to 91 °C.
The value for `C/C(=N/NC(N)=O)C(=O)Nc1ccc(Br)cc1` was 243 to 245 °C.
`C=CCC(CC)(CC)C(N)=O`: the melting point was found to be 75 °C.
Consider `C=CCOC(=O)C=CC(=O)OCC=C`, for which the melting point is -47 °C.
As to `COc1cccc(OCC(=O)O)c1`, the melting point is 118 °C.
As to `Cc1nc(-c2ccc(C(F)(F)F)cc2)sc1C#N`, the melting point was 155 to 156 °C.
Consider `Cc1ccc2cc3c(cc2n1)CCC(C)N3C(=O)c1ccccc1` (stereo not given), for which the melting point came out at 155 °C.
As for `O=C1NC(=O)[C@@H]2CC=CC[C@H]12`, the melting point lay within 131 to 138 °C.
In the case of `O=C1OC(=O)C2=C1Cc1ccccc1C2`, the melting point is 241 to 247 °C.
In the case of `O=S(=O)(O)c1ccc2ccccc2c1`, the melting point is 91 °C.
`CCC1=C(C=NNc2ccc([N+](=O)[O-])cc2[N+](=O)[O-])CCCC1`: the melting point was 192 to 194 °C.
Take `O=C(Cl)C=Cc1ccccc1Cl`: the melting point is 38 °C.
`CCCCN(CCCC)C(C(N)=O)c1ccc(OC)cc1` (stereo not given) showed a melting point of 134 °C.
The molecule `CC(C)(C)OC(=O)n1cc(C(=O)O)c2c(Br)cccc21` gave a melting point of 149 to 150 °C.
The molecule `O=S(=O)(F)Cc1ccccc1` registered a melting point of 93 °C.
As to `CC(C)NC(=O)C(C(F)(F)F)C(F)(F)F`, the melting point worked out at 136 °C.
Under `C#CC(C)(C)N` stands 18 °C; under `O=[N+]([O-])c1ccc(N2CCOCC2)cc1`, 152 °C.
Regarding `Oc1ccccc1S`, the melting point is 20 °C.
`ON(Cc1c(F)cccc1Cl)Cc1c(F)cccc1Cl` showed a melting point of 169 to 171 °C.
In the case of `N#Cc1ccc(N2CCCNCC2)nc1`, the melting point lay in the range of 63 to 65 °C.
The value for `C[Si](C)(O)c1ccc([Si](C)(C)O)cc1` was 135 °C.
`CCCCc1ccc(/N=N/c2ccc(OC)cc2)cc1` gave a melting point of 31 to 48 °C.
Regarding `Cc1ccc(S(=O)(=O)OCCc2coc3ccccc23)cc1`, the melting point was 61 to 62 °C.
In the case of `Cc1ccc(C(C)(Cl)C(=O)O)cc1` (stereo not given), the melting point came out at 112 °C.
The value for `O=[N+]([O-])c1ccc(C#Cc2ccc([N+](=O)[O-])cc2S(=O)(=O)Oc2ccccc2)c(S(=O)(=O)Oc2ccccc2)c1` was 185 to 186 °C; that for `O=C(O)Cc1nn(Cc2nc3cc(C(F)(F)F)ccc3s2)c(=O)c2ccccc12` was 197 °C.
For `CC1=C(C(=O)OCc2ccccc2)C(c2ccccc2)NC(=S)N1` (stereo not given), the melting point was found to be 175 °C.
For the molecule `CCCCCCCCC(CCCCCCCC)C(=O)O`, the melting point was determined as 38.5 °C.
The value for `Nc1cc2ccccc2oc1=O` was 136 °C.
For `Cc1ccc(Oc2ccc([N+](=O)[O-])cc2)cc1`, the melting point came to 69 °C.
Under `CCCCC=CCCC=CCCCCCCOC(C)=O` stands 25 °C.
As to `CC(=O)Nc1ccc(N)cc1C`, the melting point lay within 141 to 142 °C.
As for `C/C(=C(/C#N)c1nc2ccccc2s1)c1cc2ccccc2oc1=O`, the melting point stood at 155 °C.
In turn, `O=C=Nc1cc([N+](=O)[O-])ccc1Cl` came in with a melting point of 94 °C.
`O=C1CCc2ccccc2C1` displayed a melting point of 18 °C.
Molecule `c1ccc(-c2c3ccccc3c(-c3ccccc3)c3c(-c4ccccc4)c4ccccc4c(-c4ccccc4)c23)cc1` came in with a melting point of 332 °C.
The molecule `O=C1OC2(Cc3ccccc31)Cc1ccccc12` (stereo not given) displayed a melting point of 88 °C.
The molecule `CC(=O)N1C(=O)[C@@](O)([C@H]2c3ccccc3O[C@@H]2Cl)c2ccccc21` had a melting point of 133 °C.
In turn, `CCC1(O)C(=O)OCc2c1cc1n(c2=O)Cc2cc3c(CN(C)C)c(O)ccc3nc2-1` (stereo not given) displayed a melting point of 216 °C.
As for `Cc1ccc(O)c(C(O)c2ccc(Br)cc2)c1` (stereo not given), the melting point came to 107 °C.
Regarding `O=[N+]([O-])c1ccccc1N=C=S`, the melting point stood at 75 °C.
`O=[N+]([O-])c1ccc(F)cc1Cl` returned a melting point of 35 °C.
The value for `Nc1ccc2c(c1)C(=O)c1ccccc1C2=O` was 304 °C; that for `CCOC(=O)c1c(C)n[nH]c1N` was 108 °C.
For the molecule `O=C(C=CN(O)c1ccccc1)c1ccc2c(c1)CCCC2`, the melting point came to 148 °C.
The molecule `CCCCCCC=NO` came in with a melting point of 57.5 °C.
Consider `CCOC(=O)c1ccccc1`, for which the melting point is -34 °C.
Molecule `O=C(O)c1cc2ccccn2n1` displayed a melting point of 189 to 192 °C.
For the molecule `CCCCCCOCCOCCO`, the melting point was -40 °C.
Under `Cc1cc(OC(=O)N(C)C)n(-c2ccccc2)n1` stands 50 °C.

As usually defined, the melting point is the temperature of the solid-liquid transition.
